Results reported in US9434727B2, “Substituted 4-phenylpiperidines, their preparation and use” (THE TRUSTEES OF COLUMBIA UNIVERSITY IN THE CITY OF NEW YORK, priority 2014, dated 2016).

Tests used:
RBP4-TTR interaction = RBP4-TTR interaction (Homo sapiens (Human), UniProt P02753); experiment: TR-FRET (HTRF) assay for retinol-induced RBP4-TTR interaction; type: biochemical; settings: in the presence of 1 μM retinol; read-out: HTRF assay for antagonists of RBP4-TTR interaction: IC50
Text: TR-FRET assay for retinol-induced RBP4-TTR interaction Binding of a desired RBP4 antagonist displaces retinol and induces hindrance for RBP4-TTR interaction resulting in the decreased FRET signal (FIG. 7). Bacterially expressed MBP-RBP4 and untagged TTR were used in this assay. […] Following cell lysis, recombinant RBP4 was purified from the soluble fraction using the ACTA FPLC system (GE Healthcare) equipped with the 5-ml the MBP Trap HP column. Human untagged TTR was purchased from Calbiochem. Untagged TTR was labeled directly with Eu^3+ Cryptate-NHS using the HTRF Cryptate Labeling kit from CisBio following the manufacturer's recommendations. HTRF assay was performed in white low volume 384 well plates (Greiner-Bio) in a final assay volume of 16 μl per well. The reaction buffer contained 10 mM Tris-HCl pH 7.5, 1 mM DTT, 0.05% NP-40, 0.05% Prionex, 6% glycerol, and 400 mM KF. […] Titration of test compounds in this assay was conducted in the presence of 1 μM retinol. All reactions were assembled in the dark under dim red light and incubated overnight at +4° C. wrapped in aluminum foil. TR-FRET signal was measured in the SpectraMax M5e Multimode Plate Reader (Molecular Device). […] The TR-FRET signal was expressed as the ratio of fluorescence intensity: Flu665/Flu620×10,000.

RBP4 = RBP4 (Homo sapiens (Human), UniProt P02753); experiment: Scintillation proximity (SPA) RBP4 binding assay; settings: 10 nM 3H-Retinol, 50 nM biotinylated RBP4
Protocol: Scintillation Proximity RBP4 Binding Assay
Untagged human RBP4 purified from urine of tubular proteinuria patients was purchased from Fitzgerald Industries International. It was biotinylated using the EZ-Link Sulfo-NHS-LC-Biotinylation kit from Pierce following the manufacturer's recommendations. Binding experiments were performed in 96-well plates (OptiPlate, PerkinElmer) in a final assay volume of 100 μl per well in SPA buffer (IX PBS, pH 7.4, 1 mM EDTA, 0.1% BSA, 0.5% CHAPS). The reaction mix contained 10 nM ^3H-Retinol (48.7 Ci/mmol; PerkinElmer), 0.3 mg/well Streptavidin-PVT beads, 50 nM biotinylated RBP4 and a test compound. Nonspecific binding was determined in the presence of 20 μM of unlabeled retinol. The reaction mix was assembled in the dark under dim red light. The plates were sealed with clear tape (TopSeal-A: 96-well microplate, PerkinElmer), wrapped in the aluminum foil, and allowed to equilibrate 6 hours at room temperature followed by overnight incubation at +4° C. Radiocounts were measured using a TopCount NXT counter (Packard Instrument Company).

CC(=O)N1CCc2c(C(=O)N3CCC(c4cc(F)cc(F)c4C(F)(F)F)CC3)n[nH]c2C1 [Compound 131, 1-(3-(4-(3,5-Difluoro-2-(trifluoromethyl)phenyl)piperidine-1-carbonyl)-4,5-dihydro-1H-pyrazolo[3,4-c]pyridin-6(7H)-yl)ethanone]
IC50 (RBP4-TTR interaction): 10.9 nM | IC50 (RBP4): 6.36 nM

N#Cc1ccc2nnc(C(=O)N3CCC(c4cc(F)cc(F)c4C(F)(F)F)CC3)n2c1 [Compound 132, 3-(4-(3,5-Difluoro-2-(trifluoromethyl)phenyl)piperidine-1-carbonyl)-[1,2,4]triazolo[4,3-a]pyridine-6-carbonitrile]
IC50 (RBP4-TTR interaction): 10.5 nM | IC50 (RBP4): 6.75 nM

COC(=O)N1CCc2[nH]nc(C(=O)N3CCC(c4cc(F)cc(F)c4C(F)(F)F)CC3)c2C1 [Compound 138, Methyl 3-(4-(3,5-difluoro-2-(trifluoro-methyl)phenyl)piperidine-1-carbonyl)-6,7-dihydro-1H-pyrazolo[4,3-c]pyridine-5(4H)-carboxylate]
IC50 (RBP4-TTR interaction): 24.4 nM | IC50 (RBP4): 10.1 nM

CC(=O)N1CCc2c(C(=O)N3CCC(c4cc(F)ccc4C(F)(F)F)CC3)n[nH]c2C1 [Compound 140, 1-(3-(4-(5-fluoro-2-(trifluoromethyl)phenyl)piperidine-1-carbonyl)-4,5-dihydro-1H-pyrazolo[3,4-c]pyridin-6(7H)-yl)ethanone]
IC50 (RBP4-TTR interaction): 21.9 nM | IC50 (RBP4): 9.28 nM

CC(=O)N1CCc2c(C(=O)N3CCC(c4cc(F)ccc4Cl)CC3)n[nH]c2C1 [Compound 143, 1-(3-(4-(2-chloro-5-fluorophenyl)piperidine-1-carbonyl)-4,5-dihydro-1H-pyrazolo[3,4-c]pyridin-6(7H)-yl)ethanone]
IC50 (RBP4-TTR interaction): 52.3 nM | IC50 (RBP4): 8.83 nM

CS(=O)(=O)N1CCc2[nH]nc(C(=O)N3CCC(c4cc(F)ccc4Cl)CC3)c2C1 [Compound 144, (4-(2-chloro-5-fluorophenyl)piperidin-1-yl)(5-(methylsulfonyl)-4,5,6,7-tetrahydro-1H-pyrazolo[4,3-c]pyridin-3-yl)methanone]
IC50 (RBP4-TTR interaction): 70.3 nM | IC50 (RBP4): 6.17 nM

N#Cc1ccc2nnc(C(=O)N3CCC(c4cc(F)ccc4Cl)CC3)n2c1 [Compound 145, 3-(4-(2-Chloro-5-fluorophenyl)piperidine-1-carbonyl)-[1,2,4]triazolo[4,3-a]pyridine-6-carbonitrile]
IC50 (RBP4-TTR interaction): 67 nM | IC50 (RBP4): 7.57 nM

O=C(c1n[nH]c2c1CCN(CC1CC1)C2)N1CCC(c2cccc(F)c2Cl)CC1 [Compound 146, (4-(2-chloro-3-(fluorophenyl)piperidin-1-yl)(6-cyclopropylmethyl)-4,5,6,7-tetrahydro-1H-pyrazolo[3,4-c]pyridine-3-yl)methanone]
IC50 (RBP4-TTR interaction): 36.5 nM | IC50 (RBP4): 15.9 nM

COC(=O)N1CCc2c(C(=O)N3CCC(c4cccc(F)c4Cl)CC3)n[nH]c2C1 [Compound 147, Methyl 3-(4-(2-chloro-3-fluorophenyl)piperidine-1-carbonyl)-4,5-dihydro-1H-pyrazolo[3,4-c]pyridine-6(7H)-carboxylate]
IC50 (RBP4-TTR interaction): 25.5 nM | IC50 (RBP4): 17.1 nM

CC(=O)N1CCc2c(C(=O)N3CCC(c4cccc(F)c4Cl)CC3)n[nH]c2C1 [Compound 150, 1-(3-(4-(2-chloro-3-fluorophenyl)piperidine-1-carbonyl)-4,5-dihydro-1H-pyrazolo[3,4-c]pyridin-6(7H)-yl)ethanone]
IC50 (RBP4-TTR interaction): 23.7 nM | IC50 (RBP4): 4.84 nM

CS(=O)(=O)N1CCc2[nH]nc(C(=O)N3CCC(c4cccc(F)c4Cl)CC3)c2C1 [Compound 151]
IC50 (RBP4-TTR interaction): 67.7 nM | IC50 (RBP4): 10.3 nM

N#Cc1ccc2nnc(C(=O)N3CCC(c4cccc(F)c4Cl)CC3)n2c1 [Compound 152, 3-(4-(2-chloro-3-fluorophenyl)piperidine-1-carbonyl)-[1,2,4]triazolo[4,3-a]pyridine-6-carbonitrile]
IC50 (RBP4-TTR interaction): 27.8 nM | IC50 (RBP4): 3.1 nM

CC(=O)N1CCc2c(C(=O)N3CCC(c4cc(C(F)(F)F)cc(C(F)(F)F)c4)CC3)n[nH]c2C1 [Compound 153, 1-(3-(4-(3,5-bis(trifluoromethyl)phenyl)piperidine-1-carbonyl)-4,5-dihydro-1H-pyrazolo[3,4-c]pyridin-6(7H)-yl)ethanone]
IC50 (RBP4-TTR interaction): 833 nM | IC50 (RBP4): 149 nM

CS(=O)(=O)N1CCc2[nH]nc(C(=O)N3CCC(c4cc(C(F)(F)F)cc(C(F)(F)F)c4)CC3)c2C1 [Compound 154, (4-(3,5-bis(trifluoromethyl)phenyl)piperidin-1-yl)(5-(methylsulfonyl)-4,5,6,7-tetrahydro-1H-pyrazolo[4,3-c]pyridin-3-yl)methanone]
IC50 (RBP4-TTR interaction): 385 nM | IC50 (RBP4): 150 nM

CC(=O)N1CCc2c(C(=O)N3CCC(c4c(F)cccc4C(F)(F)F)CC3)n[nH]c2C1 [Compound 156, 1-(3-(4-(2-fluoro-6-(trifluoromethyl)phenyl)piperidine-1-carbonyl)-4,5-dihydro-1H-pyrazolo[3,4-c]pyridin-6 (7H)-yl) ethanone]
IC50 (RBP4-TTR interaction): 248 nM | IC50 (RBP4): 19.4 nM

N#Cc1ccc2nnc(C(=O)N3CCC(c4c(F)cccc4C(F)(F)F)CC3)n2c1 [Compound 157, 3-(4-(2-fluoro-6-(trifluoromethyl)phenyl)piperidine-1-carbonyl)-[1,2,4]triazolo[4,3-a]pyridine-6-carbonitrile]
IC50 (RBP4-TTR interaction): 92 nM | IC50 (RBP4): 5.84 nM

CC(=O)N1CCc2c(C(=O)N3CCC(c4ccc(F)cc4C(F)(F)F)CC3)n[nH]c2C1 [Compound 158, 1-(3-(4-(4-fluoro-2-(trifluoromethyl)phenyl)piperidine-1-carbonyl)-4,5-dihydro-1H-pyrazolo[3,4-c]pyridin-6(7H)-yl)ethanone]
IC50 (RBP4-TTR interaction): 36.8 nM | IC50 (RBP4): 8.63 nM

N#Cc1ccc2nnc(C(=O)N3CCC(c4cccc(Cl)c4C(F)(F)F)CC3)n2c1 [Compound 162, 3-(4-(3-Chloro-2-(trifluoromethyl)phenyl)piperidine-1-carbonyl)-[1,2,4]triazolo[4,3-a]pyridine-6-carbonitrile]
IC50 (RBP4-TTR interaction): 10.7 nM | IC50 (RBP4): 4.82 nM

CCN1CCc2[nH]nc(C(=O)N3CCC(c4cccc(F)c4Cl)CC3)c2C1 [Compound 163, (4-(2-Chloro-3-fluorophenyl)piperidin-1-yl)(5-ethyl-4,5,6,7-tetrahydro-1H-pyrazolo[4,3-c]pyridin-3-yl)methanone]
IC50 (RBP4-TTR interaction): 55.3 nM | IC50 (RBP4): 15.3 nM

O=C(c1n[nH]c2c1CN(CC1CC1)CC2)N1CCC(c2cccc(F)c2Cl)CC1 [Compound 164, (4-(2-Chloro-3-fluorophenyl)piperidin-1-yl)(5-(cyclopropylmethyl)-4,5,6,7-tetrahydro-1H-pyrazolo[4,3-c]pyridin-3-yl)methanone]
IC50 (RBP4-TTR interaction): 75 nM | IC50 (RBP4): 13.6 nM

O=C(c1n[nH]c2c1CN(C1COC1)CC2)N1CCC(c2cccc(F)c2Cl)CC1 [Compound 165, (4-(2-Chloro-3-fluorophenyl)piperidin-1-yl)(5-(oxetan-3-yl)-4,5,6,7-tetrahydro-1H-pyrazolo[4,3-c]pyridin-3-yl)methanone]
IC50 (RBP4-TTR interaction): 64.8 nM | IC50 (RBP4): 15.6 nM

O=C(c1n[nH]c2c1CN(CCC(F)(F)F)CC2)N1CCC(c2cccc(F)c2Cl)CC1 [Compound 167, (4-(2-Chloro-3-fluorophenyl)piperidin-1-yl)(5-(3,3,3-trifluoropropyl)-4,5,6,7-tetrahydro-1H-pyrazolo[4,3-c]pyridin-3-yl)methanone]
IC50 (RBP4-TTR interaction): 48.8 nM | IC50 (RBP4): 11.7 nM

O=C(c1n[nH]c2c1CN(C(=O)N1CCNCC1)C2)N1CCC(c2ccc(F)c(F)c2C(F)(F)F)CC1 [Compound 169, (4-(3,4-Difluoro-2-(trifluoromethyl)phenyl)piperidin-1-yl)(5-(piperazine-1-carbonyl)-1,4,5,6-tetrahydropyrrolo[3,4-c]pyrazol-3-yl)methanone]
IC50 (RBP4-TTR interaction): 55.8 nM | IC50 (RBP4): 33 nM
